Experimental data: patent US20220273624A1, “NOVEL ANTIVIRAL THERAPIES” (NIKLOVIR AB, priority 2019, published 2022)
Like-named read-outs stand apart in the source and are kept apart here.

Tests used:
Ljungan-like virus = test: Immunohistochemistry for LV VP1 antigen in pancreas tissue of treated DP-BB rats (Example 1); assay type: in vivo, rat; settings: for Non-infected (number of animals, viral antigen in pancreas by IHC) / Infected (number of animals, viral antigen in pancreas by IHC): Pleconaril 100 mg/kg, Efavirenz 30 mg/kg daily from 45 to 60 days of age; for Non-infected (number of animals, viral antigen in pancreas by IHC): control 0 of 9 non-infected; for Infected (number of animals, viral antigen in pancreas by IHC): control 9 of 9 infected; for effect on clearing the infection (in words): pancreas tissue following treatment
Procedure: DP-BB rats were obtained from the breeding colony maintained at the Karolinska Institute (Solna, Sweden). The animals were housed under Specific Pathogen Free conditions in a temperature- and humidity-controlled room with 12 hour light dark cycles. They were fed R36 diet and water ad libitum. Animals of both genders were used. The overall incidence of diabetes among the DP rats used in the colony study is 100% with 60 days as the mean age of onset.
Antiviral agents (pleconaril and efavirenz) were administered to the animals in a dose of 100 mg/kg and 30 mg/kg body weight for Pleconaril and Efavirenz, respectively. Treatment was given daily using formulation containing the vehicle 0.4% (v/v) Tween 80+2% (v/v) glycerol+15% (w/v) Hydroxypropyl-beta-cyclodextrin.
Four experimental treatment groups consisted of six rats given pleconaril, six given Efavirenz, eight given a combination of both compounds, and nine given the vehicle solution and serving as a control. All four groups began treatment at 45 days of age and treatment was maintained until 60 days of age when animals were sacrificed.
Formalin fixed paraffin embedded pancreas tissue were analyzed by immunohistochemistry. The tissues were fixed in 4% formalin and embedded in paraffin as described previously with minor modifications (Shi et al., 1991), (Shi, 1997). Presence of LV specific antigen was visualized using a polyclonal recombinant LV VP1 raised in rabbits (Tolf, 2008). As control we used serum from a rabbit immunized using the same protocol but with the carrier GST protein only. Tissues from LV-infected and non-infected animals were included as controls. The specificity of the rabbit antibodies were verified by analyzing control specimens generated by mixing infected tissue culture cells with non-infected cells followed by formalin fixation and paraffin imbedding. The specificity of the reaction was also confirmed by blocking the signal with LV antigen in parallel with control antigen.
Pancreas tissue was also analysed using the PCR assay described by Donoso Mantke and co-workers (Donoso Mantke et al., 2007).

DP BB rats = settings: group B, Pleconaril alone 100 mg/kg BW once daily for 30 days, previously reported (Niklasson et al., 2016), control 59 (7), cited from earlier work

Compound | Non-infected (number of animals, viral antigen in pancreas by IHC) (Ljungan-like virus) | Infected (number of animals, viral antigen in pancreas by IHC) (Ljungan-like virus) | effect on clearing the infection (in words) (Ljungan-like virus) | Mean diab onset day (SD) (DP BB rats; listed as Plec) | Mean diab onset day (SD) (DP BB rats)
O=C1Nc2ccc(Cl)cc2[C@@](C#CC2CC2)(C(F)(F)F)O1 [Efavirenz, (4S)-6-chloro-4-(2-cyclopropylethynyl)-4-(trifluoromethyl)-1H-3,1-benz-oxazin-2-one] | 0 | 6 | essentially no effect | – | –
Cc1cc(CCCOc2c(C)cc(-c3noc(C(F)(F)F)n3)cc2C)on1 [Pleconaril, 3-[3,5-dimethyl-4-[3-(3-methylisoxazol-5-yl)propoxy]phenyl]-5-(trifluoro-methyl)-1,2,4-oxadiazole] | 2 | 4 | only a modest effect on clearing the infection | 62 (8) day | 62 (SD 8) day
